Laboratory results: patent US8735406B2, “8-oxodihydropurine derivative” (Dainippon Sumitomo Pharma Co., Ltd., priority 2009, dated 2014)
Like-named read-outs stand apart in the source and are kept apart here.

Molecular target: T1, FAAH (Rattus norvegicus, UniProt P97612)
T1 construct: Preparation of Rat Brain Membranes Preparations (FAAH Enzyme Solution); from tissue; host or cells: rat cerebrum (brain membrane preparation)
T1 sequence (P97612 1-579): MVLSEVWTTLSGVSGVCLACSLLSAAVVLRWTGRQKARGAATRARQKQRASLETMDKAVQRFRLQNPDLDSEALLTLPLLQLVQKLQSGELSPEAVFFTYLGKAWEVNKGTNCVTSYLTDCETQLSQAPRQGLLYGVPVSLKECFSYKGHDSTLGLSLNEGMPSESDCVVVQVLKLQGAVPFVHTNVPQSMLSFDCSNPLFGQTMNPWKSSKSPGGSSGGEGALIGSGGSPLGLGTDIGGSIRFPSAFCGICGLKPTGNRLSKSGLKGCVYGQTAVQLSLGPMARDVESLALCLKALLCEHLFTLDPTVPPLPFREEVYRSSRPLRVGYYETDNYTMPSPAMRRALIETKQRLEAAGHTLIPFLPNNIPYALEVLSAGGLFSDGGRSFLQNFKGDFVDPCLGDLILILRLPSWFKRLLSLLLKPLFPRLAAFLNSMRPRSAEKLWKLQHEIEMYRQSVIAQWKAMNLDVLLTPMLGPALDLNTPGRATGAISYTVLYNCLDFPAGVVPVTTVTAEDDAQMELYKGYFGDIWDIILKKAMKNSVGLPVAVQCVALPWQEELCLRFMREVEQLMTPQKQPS
Experiment: Determination of FAAH inhibitory activity in rat (rat brain membrane preparations, [3H]-anandamide hydrolysis)
Assay type: biochemical
Conditions: for IC50: test substance 0.1 nM to 1 μM; for inhibition at 0.1 µM: read-out: FAAH Inhibition, Inhibition Rate at 100 nM
Outline: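 Compounds tested from 0.1 nM to 1 μM to derive IC50 against FAAH hydrolysis in rat brain membrane preparations (100 μg/mL). A 10-min 37 °C preincubation was followed by 10 min with [3H]-anandamide (2 nM) mixed with 2 μM unlabelled anandamide. Radioactive ethanolamine was extracted into the water/methanol layer and counted.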

[1] = rat brain membrane preparations, 100 nM test substance
[2] = rat brain membrane preparations, read-out: FAAH Inhibition IC50

Row | Structure (SMILES) | inhibition at 0.1 µM [1] [%] | IC50 [2] [nM] | IC50 (FAAH Inhibition IC50, rat brain membrane preparations) [nM] | inhibition at 0.1 µM [%]
1 | Cn1c(=O)n(C(=O)N2CCC2)c2cnc(COc3cccc(F)c3)nc21 [compound 405] |  |  | 98 | 97
2 | Cn1c(=O)n(C(=O)N2CCC2)c2cnc(COc3ccc(Cl)cc3)nc21 [compound 406] | 54 | 100 |  | 
3 | Cn1c(=O)n(C(=O)N2CCC2)c2cnc(COc3cccc(Cl)c3)nc21 [compound 407] | 70 | 92 |  | 
4 | Cn1c(=O)n(C(=O)N2CCC2)c2cnc(COc3ccccc3F)nc21 [compound 408] | 69 | 99 |  | 
5 | Cn1c(=O)n(C(=O)N2CCC2)c2cnc(COc3ccccc3Cl)nc21 [compound 409] | 63 | 96 |  | 
6 | Cn1c(=O)n(C(=O)N2CCC2)c2cnc(COc3cccc(C(F)(F)F)c3)nc21 [compound 410] | 55 | 100 |  | 
7 | Cc1cccc(OCc2ncc3c(n2)n(C)c(=O)n3C(=O)N2CCC2)c1 [compound 411] | 45 | 171 |  | 
8 | Cn1c(=O)n(C(=O)N2CCC2)c2cnc(COc3cccc(OC(F)(F)F)c3)nc21 [compound 412] | 56 | 78 |  | 
9 | COCc1ncc2c(n1)n(C)c(=O)n2C(=O)N1CC(c2ccccc2C)C1 [compound 442] | 54 | 74 |  | 
10 | COCc1ncc2c(n1)n(C)c(=O)n2C(=O)N1CC(c2cccc(C)c2)C1 [compound 444] | 69 | 62 |  | 
11 | CCOc1ccc(C2CN(C(=O)n3c(=O)n(C)c4nc(COC)ncc43)C2)cc1 [compound 445] | 105 | 10 |  | 
12 | COCc1ncc2c(n1)n(C)c(=O)n2C(=O)N1CC(c2ccc(Cl)cc2)C1 [compound 446] | 101 | 6 |  | 

More lines, main results first:

Row | inhibition at 0.1 µM [1] [%] | IC50 [2] [nM] | Structure (SMILES) | IC50 (FAAH Inhibition IC50, rat brain membrane preparations) [nM] | inhibition at 0.1 µM [%]
13 | 131 | 1 | COCc1ncc2c(n1)n(C)c(=O)n2C(=O)N1CC(c2cccc(Cl)c2)C1 [compound 447] |  | 
14 | 95 | 10 | COCc1ncc2c(n1)n(C)c(=O)n2C(=O)N1CC(c2ccc(C(F)(F)F)cc2)C1 [compound 448] |  | 
15 | 84 | 28 | COCc1ncc2c(n1)n(C)c(=O)n2C(=O)N1CC(c2cccc(OC(F)(F)F)c2)C1 [compound 449] |  | 
16 | 89 | 20 | COCc1ncc2c(n1)n(C)c(=O)n2C(=O)N1CC(c2ccc(OC)cc2)C1 [compound 450] |  | 
17 | 95 | 12 | CCOc1cccc(C2CN(C(=O)n3c(=O)n(C)c4nc(COC)ncc43)C2)c1 [compound 451] |  | 
18 | 74 | 39 | COCc1ncc2c(n1)n(C)c(=O)n2C(=O)N1CC(c2ccc(C)cc2)C1 [compound 452] |  | 
19 | 96 | 10 | COCc1ncc2c(n1)n(C)c(=O)n2C(=O)N1CC(c2ccccc2OC)C1 [compound 457] |  | 
20 | 107 | 10 | CCOCc1ncc2c(n1)n(C)c(=O)n2C(=O)N1CC(c2ccc(F)cc2)C1 [compound 461] |  | 
21 | 69 | 52 | CCCOCc1ncc2c(n1)n(C)c(=O)n2C(=O)N1CC(c2ccccc2)C1 [compound 467] |  | 
22 | 103 | 2 | CCCOCc1ncc2c(n1)n(C)c(=O)n2C(=O)N1CC(c2ccc(F)cc2)C1 [compound 470] |  | 
23 | 113 | 8 | COCCOCc1ncc2c(n1)n(C)c(=O)n2C(=O)N1CC(c2cccc(F)c2)C1 [compound 473] |  | 
24 | 100 | 10 | CN(C)C(=O)n1c(=O)n(C)c2cnc(CCc3cccc(OC(F)(F)F)c3)nc21 [compound 495] |  | 
25 | 86 | 15 | CN(C)C(=O)n1c(=O)n(C)c2cnc(CCc3ccc(F)c(F)c3)nc21 [compound 496] |  | 
26 | 93 | 24 | Cc1cccc(CCc2ncc3c(n2)n(C(=O)N(C)C)c(=O)n3C)c1 [compound 498] |  | 
27 | 91 | 28 | CN(C)C(=O)n1c(=O)n(C)c2cnc(CCc3ccccc3F)nc21 [compound 499] |  | 
